Data published in BindingDB's records for doi:10.1021/acs.jmedchem.9b01967 (The University of Tokyo, 2020).

Assay: Inhibition of ATX (unknown origin)-mediated cell migration in human MDA-MB-231 cells assessed as reduction in cell motility after 3 hrs by Diff-Quick staining based microplate reader analysis

## CCCCCCn1c(C)cc(=O)n2cc(-c3ccc(Cl)cc3)nc12
  IC50: 30 nM
